Assay results as given in BigSolDB 2.1.

CC(=O)N1CCN(c2ccc(OC[C@@H]3CO[C@@](Cn4ccnc4)(c4ccc(Cl)cc4Cl)O3)cc2)CC1 (racemic)
solubility (mole fraction)
Conditions | 293.2 K | 298.2 K | 303.2 K | 308.2 K | 313.2 K
in NMP | 0.0212 | 0.0242 | 0.0271 | 0.0301 | 0.0333
in ethanol | 0.00235 | 0.00299 | 0.00361 | 0.00438 | 0.00527
